From patent publication US11220505B2, “5-hydroxytryptamine receptor 7 modulators and their use as therapeutic agents” (Temple University-Of the Commonwealth System of Higher …, priority 2017, dated 2022)

Each compound was assayed against Serotonin 5-HT7 Receptors (Homo sapiens (Human), UniProt P34969) (assay: Radiolabel Binding Studies for Serotonin 5-HT7 Receptors, Method 2 ([3H]-5HT competition; Ki and percent inhibition at 10 μM)). Conditions: @ 10 μM single concentration; read-out: 5-HT7 percent inhibition of radioligand binding.
Procedure: Radiolabel Binding Studies for Serotonin 5-HT7 Receptors, Method 2:
A solution of the compound of the disclosure to be tested is prepared as a 1-mg/ml stock in Assay Buffer or DMSO according to its solubility. A similar stock of the reference compound chlorpromazine is also prepared as a positive control. Eleven dilutions (5×assay concentration) of the compound of the disclosure and chlorpromazine are prepared in the Assay Buffer by serial dilution to yield final corresponding assay concentrations ranging from 10 pM to 10 μM.
A stock concentration of 5 nM [^3H]-5-Hydroxytryptamine ([^3H]-5HT) is prepared in 50 mM Tris-HCl, 10 mM MgCl2, 1 mM EDTA, pH 7.4 (Assay Buffer). Aliquots (50 μl) of radioligand are dispensed into the wells of a 96-well plate containing […] of Assay Buffer. Duplicate 50-μl aliquots of the compound of the disclosure test and chlorpromazine positive control reference compound serial dilutions are added.
Membrane fractions of cells expressing recombinant 5HT7 receptors (50 μL) are dispensed into each well. The membranes are prepared from stably transfected cell lines expressing 5HT7 receptors cultured on 10-cm plates by harvesting PBS-rinsed monolayers, resuspending and lysing in chilled, hypotonic 50 mM Tris-HCl, pH 7.4, centrifuging at 20,000×g, decanting the supernatant and storing at −80° C.; the membrane preparations are resuspended in 3 ml of chilled Assay Buffer and homogenized by several passages through a 26 gauge needle before using in the assay.
The 250-μl reactions are incubated at room temperature for 1.5 hours, then harvested by rapid filtration onto 0.3% polyethyleneimine-treated, 96-well filter mats using a 96-well Filtermate harvester. Four rapid 500-μl washes are performed with chilled Assay Buffer to reduce non-specific binding. The filter mats are dried, then scintillant is added to the filters and the radioactivity retained on the filters is counted in a Microbeta scintillation counter.
Raw data (dpm) representing total radioligand binding (i.e., specific+non-specific binding) are plotted as a function of the logarithm of the molar concentration of the competitor (i.e., test or reference compound). Non-linear regression of the normalized (i.e., percent radioligand binding compared to that observed in the absence of test or reference compound) raw data is performed in Prism 4.0 (GraphPad Software) using the built-in three parameter logistic model describing ligand competition binding to radioligand-labeled sites: y=bottom+[(top−bottom)/(1+10x−log IC50)] where bottom equals the residual radioligand binding measured in the presence of 10 μM reference compound (i.e., non-specific binding) and top equals the total radioligand binding observed in the absence of competitor. The log IC50 (i.e., the log of the ligand concentration that reduces radioligand binding by 50%) is thus estimated from the data and used to obtain the Ki by applying the Cheng-Prusoff approximation: Ki=IC50/(1+[ligand]/KD) where [ligand] equals the assay radioligand concentration and KD equals the affinity constant of the radioligand for the target receptor.
Compounds of the disclosure are also screened at a single concentration of 10 μM using the same method described for the Radiolabel Binding Studies for Serotonin 5HT7 receptors to determine the percent inhibition of [^3H]-5HT binding.

Serotonin 5-HT7 Receptors, sequence (P34969 whole entry): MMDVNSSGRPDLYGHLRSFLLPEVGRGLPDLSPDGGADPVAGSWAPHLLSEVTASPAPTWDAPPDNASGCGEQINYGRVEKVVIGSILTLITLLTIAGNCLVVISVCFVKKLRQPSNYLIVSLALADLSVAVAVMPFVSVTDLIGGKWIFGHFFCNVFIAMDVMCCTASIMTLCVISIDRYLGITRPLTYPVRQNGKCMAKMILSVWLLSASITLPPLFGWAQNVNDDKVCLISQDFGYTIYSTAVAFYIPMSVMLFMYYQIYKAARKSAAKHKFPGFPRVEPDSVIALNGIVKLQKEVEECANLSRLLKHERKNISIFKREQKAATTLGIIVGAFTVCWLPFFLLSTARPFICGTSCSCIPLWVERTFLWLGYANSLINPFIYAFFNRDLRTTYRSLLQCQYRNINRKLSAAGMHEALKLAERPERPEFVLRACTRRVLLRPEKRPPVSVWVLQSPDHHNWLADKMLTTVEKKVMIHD

Row | inhibition at 10 µM | Compound
1 | 44.5% | CCC1(CC)CC(CCN2CC3CN(c4ccc(C)cc4)CC3C2)OC1=O (stereo not shown) [Entry 6]
2 | 48.9% | CCC1(CC)CC(CCN2CC3CN(c4cccc(C#N)c4)CC3C2)OC1=O (stereo not shown) [Entry 8]
3 | 26.3% | CCC1(CC)CC(CCN2CC3CN(c4ccc(C#N)cc4)CC3C2)OC1=O (stereo not shown) [Entry 9]
4 | 24.5% | CCC1(CC)CC(CCN2CC3CN(c4ccc(OC)cc4)CC3C2)OC1=O (stereo not shown) [Entry 12]
5 | 39.8% | CCC1(CC)CC(CCN2CC3CN(c4cccc(O)c4)CC3C2)OC1=O (stereo not shown) [Entry 14]

Same assay, conditions: radiolabel binding, 5HT7 receptors

Row | IC50 | Compound
6 | 64 nM | CCC1(CC)CC(CCN2CC3CN(c4ccccc4)CC3C2)OC1=O (stereo not shown) [Entry 1]
7 | 277 nM | CCC1(CC)CC(CCN2CC3CN(c4ccccc4C(C)C)CC3C2)OC1=O (stereo not shown) [Entry 2]
8 | 268 nM | CC(C)c1ccccc1N1CC2CN(CCC3CC4(CCCCC4)C(=O)O3)CC2C1 (stereo not shown) [Entry 3]
9 | 179 nM | CCC1(CC)CC(CCN2CC3CN(c4ccccc4C)CC3C2)OC1=O (stereo not shown) [Entry 4]
10 | 104 nM | CCC1(CC)CC(CCN2CC3CN(c4cccc(C)c4)CC3C2)OC1=O (stereo not shown) [Entry 5]
11 | 8.9 nM | CCC1(CC)CC(CCN2CC3CN(c4ccccc4C#N)CC3C2)OC1=O (stereo not shown) [Entry 7]
12 | 151 nM | CCC1(CC)CC(CCN2CC3CN(c4ccccc4OC)CC3C2)OC1=O (stereo not shown) [Entry 10]
13 | 911 nM | CCC1(CC)CC(CCN2CC3CN(c4cccc(OC)c4)CC3C2)OC1=O (stereo not shown) [Entry 11]
14 | 227 nM | CCC1(CC)CC(CCN2CC3CN(c4ccccc4O)CC3C2)OC1=O (stereo not shown) [Entry 13]
15 | 130 nM | CCC1(CC)CC(CCN2CC3CN(c4ccc(O)cc4)CC3C2)OC1=O (stereo not shown) [Entry 15]
16 | 160 nM | CCC1(CC)CC(CCN2CC3CN(c4ccccc4N4CCOCC4)CC3C2)OC1=O (stereo not shown) [Entry 16]
